Measured values reported in US20150246938A1, “NOVEL OLEFIN DERIVATIVE” (SHIONOGI & CO., LTD., priority 2011, published 2015).

target: T1, recombinant human ACC1 (Homo sapiens, UniProt Q13085); assay: Measurement of inhibitory activity on human ACC1 (MALDI-TOF MS, acetyl CoA to malonyl CoA conversion); format: biochemical; settings: not given
T1 construct: a cDNA encoding human ACC1 (1-2346) was cloned from human liver cDNA library (BioChain); myc-tag (C); His-tag (C); made in house; host or cells: Sf-9 insect cells (baculovirus, FlashBACGOLD)
From the text: Recombinant baculovirus was generated using FlashBACGOLD system (Oxford Expression Technologies) according to the manufacturer's protocol. To express human ACC1, Sf-9 cells were infected with recombinant baculovirus. After infected cells were disrupted, the filtrated lysate was subjected to Ni-affinity chromatography and anion-exchange chromatography. The fractions containing human ACC1 protein were pooled as recombinant human ACC1 solution.
Recombinant human ACC1 and recombinant human ACC2, which were prepared by the method mentioned above, were preincubated with assay buffer solution (50 mM HEPES-KOH (pH 7.4), 10 mM magnesium chloride, 6-10 mM potassium citrate, 4 mM reduced form of glutathione, 1.5 mg/ml bovine serum albumin) for one hour. Then, 0.2 μL of each this invention compound solution (in DMSO) were dispensed to 384-well microplate, 5 μL of the preincubated enzyme solution and 5 μL of substrate solution (50 mM HEPES-KOH (pH 7.4), 1 mM ATP, 0.8 mM acetyl CoA and 25-50 mM potassium bicarbonate) were added to microplate. After centrifugation and shaking, the reaction mixtures were incubated in a humidified box at room temperature for 1 to 3 hours. After the incubation, the enzyme reactions were stopped by the addition of EDTA. Then, after the samples were cocrystallized with CHCA (α-cyano-4-hydroxy cinnamic acid) matrices on MALDI target plate, by using the matrix assist laser […] time-of-flight mass spectrometer (MALDI-TOF MS), samples were measured in reflector negative mode. Deprotonated ions of acetyl CoA (AcCoA) of substrate and malonyl CoA (MalCoA) of the reaction product were detected, then, the conversion rates of acetyl CoA to malonyl CoA was calculated by the intensity of [MalCoA-H]-/(Intensity of [MalCoA-H]-+Intensity of [AcCoA-H]-) using each signal strength. […] In addition, potassium citrate concentrations in assay buffer solution, potassium hydrogen carbonate concentrations in substrate solution and incubation time were adjusted by each lot of enzyme.

Row | IC50 | Compound
1 | > 100 µM | CCCc1ccc(Oc2ccc(/C=C/[C@H](C)NC(C)=O)cn2)c(OC)c1 [Compound I-438]
2 | > 100 µM | CCNC(=O)c1cc(C(=O)N[C@@H](C)/C=C/c2cnn(Cc3ccc(OCC4CC4)c(Cl)c3Cl)c2)ccn1 [Compound I-320]
3 | > 100 µM | CCCc1ccc(Oc2ccc(/C=C/[C@H](C)NC(=O)CN)cn2)c(Cl)c1 [Compound I-390]
4 | > 100 µM | CCOc1ccc(Cc2ccc(/C=C/[C@H](C)NC(C)=O)cn2)c(Cl)c1 [Compound I-60]

same assay, conditions: recombinant human ACC1, MALDI-TOF MS readout; read-out: 50% inhibitory concentration (1050) on human ACCT

Row | IC50 | Compound
5 | > 100 µM | CC(C)NC(=O)c1cc(C(=O)N[C@@H](C)/C=C/c2cnc(Oc3ccc(OCC4CC4)cc3Cl)s2)ccn1 [Compound I-210]
6 | > 100 µM | COC(=O)CCCCC(=O)N[C@@H](C)/C=C/c1cnc(Oc2ccc(OCC3CC3)cc2Cl)s1 [Compound I-130]
7 | > 100 µM | CNC(=O)COc1cc(C(=O)N[C@@H](C)/C=C/c2cnc(Oc3ccc(OCC4CC4)cc3Cl)s2)ccn1 [Compound I-250]
8 | > 100 µM | CCCc1ccc(Oc2ccc(/C=C/[C@H](C)NC(C)=O)cn2)c(Cl)c1 [Compound I-30]
9 | > 100 µM | CC(=O)N[C@@H](C)/C=C/c1ccc(Oc2ccc(-c3ncns3)cc2Cl)nc1 [Compound I-420]
10 | > 100 µM | C[C@@H](/C=C/c1cnc(Oc2ccc(OCC3CC3)cc2Cl)s1)NC(=O)c1ccnc(N(C)C)c1 [Compound I-160]
11 | > 100 µM | CC(=O)N[C@@H](C)/C=C/c1cnc(Oc2ccc(OCC3CC3)cc2Cl)s1 [Compound I-1]
12 | > 100 µM | COC(=O)N[C@@H](C)/C=C/c1cnc(Oc2ccc(OCC3CC3)cc2Cl)s1 [Compound I-180]
13 | > 100 µM | C[C@@H](/C=C/c1cnc(Oc2ccc(OCC3CC3)cc2Cl)s1)NC(=O)CC(=O)OC(C)(C)C [Compound I-100]
14 | > 100 µM | CC(=O)N[C@@H](C)/C=C/c1ccc(Oc2ccc(C(C)(C)C)cc2Cl)nc1 [Compound I-300]

target: T2, recombinant human ACC2 (Homo sapiens, UniProt O00763); assay: Measurement of inhibitory activity on human ACC2 (MALDI-TOF MS, acetyl CoA to malonyl CoA conversion); format: biochemical; settings: not given
T2 construct: a cDNA encoding human ACC2 (27-2458) was cloned from human kidney cDNA library (Clontech); His-tag (N); made in house; host or cells: Sf-9 insect cells (Bac-to-Bac baculovirus)
T2 sequence (O00763 27-2458): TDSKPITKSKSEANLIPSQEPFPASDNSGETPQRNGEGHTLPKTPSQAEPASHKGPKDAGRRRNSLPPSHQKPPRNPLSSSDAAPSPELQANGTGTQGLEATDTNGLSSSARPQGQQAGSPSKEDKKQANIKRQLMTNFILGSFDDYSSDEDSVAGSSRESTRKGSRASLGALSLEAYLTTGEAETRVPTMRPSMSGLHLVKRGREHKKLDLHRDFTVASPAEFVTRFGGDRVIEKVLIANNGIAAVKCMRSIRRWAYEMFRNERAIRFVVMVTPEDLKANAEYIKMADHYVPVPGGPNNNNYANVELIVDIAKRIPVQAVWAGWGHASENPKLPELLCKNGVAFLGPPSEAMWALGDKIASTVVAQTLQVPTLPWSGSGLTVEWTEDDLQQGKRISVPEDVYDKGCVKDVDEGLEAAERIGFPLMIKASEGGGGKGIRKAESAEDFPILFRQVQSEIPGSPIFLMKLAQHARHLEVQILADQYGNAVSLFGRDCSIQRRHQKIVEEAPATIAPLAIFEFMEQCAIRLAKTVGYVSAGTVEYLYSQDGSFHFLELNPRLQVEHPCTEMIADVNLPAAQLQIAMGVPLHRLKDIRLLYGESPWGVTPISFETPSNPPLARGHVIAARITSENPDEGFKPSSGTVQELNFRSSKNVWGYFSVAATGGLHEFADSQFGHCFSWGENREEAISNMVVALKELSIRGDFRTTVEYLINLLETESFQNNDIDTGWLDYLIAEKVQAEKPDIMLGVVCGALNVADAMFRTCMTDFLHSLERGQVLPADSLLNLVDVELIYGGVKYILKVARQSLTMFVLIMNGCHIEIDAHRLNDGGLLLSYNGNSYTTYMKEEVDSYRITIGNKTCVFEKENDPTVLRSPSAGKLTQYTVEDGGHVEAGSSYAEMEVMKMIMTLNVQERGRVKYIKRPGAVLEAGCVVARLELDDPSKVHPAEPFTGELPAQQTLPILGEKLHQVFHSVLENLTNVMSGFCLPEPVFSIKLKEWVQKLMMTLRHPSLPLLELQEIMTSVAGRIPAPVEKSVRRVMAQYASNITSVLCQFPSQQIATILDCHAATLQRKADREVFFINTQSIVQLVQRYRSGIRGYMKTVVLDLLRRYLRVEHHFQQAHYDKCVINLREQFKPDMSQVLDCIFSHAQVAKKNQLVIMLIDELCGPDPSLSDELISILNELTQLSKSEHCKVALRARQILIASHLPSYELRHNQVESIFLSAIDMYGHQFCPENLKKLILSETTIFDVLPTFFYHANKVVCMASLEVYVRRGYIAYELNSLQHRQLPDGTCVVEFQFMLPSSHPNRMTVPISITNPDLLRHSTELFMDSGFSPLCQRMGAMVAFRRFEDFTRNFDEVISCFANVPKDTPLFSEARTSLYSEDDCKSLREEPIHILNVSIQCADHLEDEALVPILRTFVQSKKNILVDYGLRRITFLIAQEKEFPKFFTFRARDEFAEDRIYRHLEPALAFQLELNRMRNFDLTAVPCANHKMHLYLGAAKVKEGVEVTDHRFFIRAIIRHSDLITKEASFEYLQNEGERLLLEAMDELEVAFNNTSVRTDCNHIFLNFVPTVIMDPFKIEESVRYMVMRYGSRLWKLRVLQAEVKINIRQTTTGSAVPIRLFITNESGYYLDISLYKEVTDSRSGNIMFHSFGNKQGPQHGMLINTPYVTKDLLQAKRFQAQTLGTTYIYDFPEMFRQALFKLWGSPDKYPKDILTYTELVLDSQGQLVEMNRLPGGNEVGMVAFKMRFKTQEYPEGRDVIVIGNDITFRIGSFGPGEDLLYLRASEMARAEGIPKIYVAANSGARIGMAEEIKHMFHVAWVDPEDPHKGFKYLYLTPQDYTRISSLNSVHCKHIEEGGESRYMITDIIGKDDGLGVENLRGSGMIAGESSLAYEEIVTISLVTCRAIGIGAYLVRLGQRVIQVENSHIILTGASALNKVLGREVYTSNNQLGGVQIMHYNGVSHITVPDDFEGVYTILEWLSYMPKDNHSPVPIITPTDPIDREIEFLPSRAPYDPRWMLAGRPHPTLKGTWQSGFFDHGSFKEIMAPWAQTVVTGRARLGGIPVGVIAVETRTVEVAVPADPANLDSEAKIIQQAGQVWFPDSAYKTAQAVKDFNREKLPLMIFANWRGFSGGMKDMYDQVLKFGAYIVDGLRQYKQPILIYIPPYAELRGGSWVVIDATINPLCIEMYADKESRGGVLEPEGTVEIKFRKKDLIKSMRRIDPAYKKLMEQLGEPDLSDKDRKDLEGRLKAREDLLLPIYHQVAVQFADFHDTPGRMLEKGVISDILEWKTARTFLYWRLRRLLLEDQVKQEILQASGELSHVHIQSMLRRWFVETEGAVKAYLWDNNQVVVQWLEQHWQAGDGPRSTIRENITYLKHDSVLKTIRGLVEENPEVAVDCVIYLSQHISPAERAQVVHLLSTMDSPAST

Row | IC50 | Compound
15 | 0.54 µM | CCCc1ccc(Oc2ccc(/C=C/[C@H](C)NC(=O)CN)cn2)c(Cl)c1 [Compound I-390]
16 | 0.12 µM | CC(=O)N[C@@H](C)/C=C/c1ccc(Oc2ccc(-c3ncns3)cc2Cl)nc1 [Compound I-420]
17 | 0.05 µM | CC(=O)N[C@@H](C)/C=C/c1ccc(Oc2ccc3c(c2)CCO3)nc1 [Compound I-429]
18 | 0.04 µM | CC(=O)N[C@@H](C)/C=C/c1ccc(Oc2ccc3nc(C)sc3c2)nc1 [Compound I-425]
19 | 0.068 µM | CC(C)C(F)(F)c1ccc(Oc2ccc(/C=C/[C@H](C)NC(N)=O)cn2)c(Cl)c1 [Compound I-399]
20 | 0.15 µM | CCOc1ccc(Oc2ccc(/C=C/[C@H](C)CC(=O)NC)cn2)c(Cl)c1 [Compound I-410]
21 | 0.4 µM | CCCc1ccc(Oc2ccc(/C=C/[C@H](C)NC(=O)CNC(=O)OC(C)(C)C)cn2)c(Cl)c1 [Compound I-386]
22 | 0.3 µM | CC(=O)N[C@@H](C)/C=C/c1cnc(Oc2cc(O)c(OCC3CC3)cc2Cl)nc1 [Compound I-406]
23 | 0.022 µM | CC(=O)N[C@@H](C)/C=C/c1ccc(Oc2ccc(CC3CC3)cc2Cl)nc1 [Compound I-380]
24 | 3.7 µM | CC(=O)N[C@@H](C)/C=C/c1cnc(Oc2ccc(OCC3CC3O)cc2Cl)nc1 (some centres unmarked) [Compound I-379]
25 | 0.36 µM | CC(=O)N[C@@H](C)/C=C/c1cc(Oc2ccc(OCC3CC3)cc2Cl)no1 [Compound I-381]
26 | 0.043 µM | CC(=O)N[C@@H](C)/C=C/c1ccc(Oc2ccc3c(c2)CCCC3)nc1 [Compound I-398]
27 | 0.018 µM | CC(=O)N[C@@H](C)/C=C/c1ccc(Oc2ccc(C(C)(C)C)cc2Cl)nc1 [Compound I-300]

same assay, conditions: inhibition activity on human ACC2, Table 79; read-out: IC50

Row | IC50 | Compound
28 | 0.037 µM | CCOc1cccc(Oc2ccc(/C=C/[C@H](C)NC(C)=O)cn2)c1Cl [Compound I-48]
29 | 0.0065 µM | CC(=O)N[C@@H](C)/C=C/c1ccc(Oc2ccc(OCC(C)C)cc2Cl)nc1 [Compound I-36]
30 | 0.23 µM | CSCCC(=O)N[C@@H](C)/C=C/c1cnc(Oc2ccc(OCC3CC3)cc2Cl)s1 [Compound I-72]

same assay, conditions: inhibition activity on human ACC2, Table 80; read-out: IC50

Row | IC50 | Compound
31 | 0.28 µM | CCCOc1ccc(Oc2ncc(/C=C/[C@H](C)NC(=O)c3ccnc(N)c3)s2)c(Cl)c1 [Compound I-163]
32 | 0.073 µM | C[C@@H](/C=C/c1cnc(Oc2ccc(OCC3CC3)cc2Cl)s1)NC(=O)c1ccnc(NCCCN2CCCC2=O)c1 [Compound I-246]
33 | 0.022 µM | CCCOc1ccc(Oc2ncc(/C=C/[C@H](C)NC(=O)c3ccnc(C(=O)OCC)c3)s2)c(Cl)c1 [Compound I-168]
34 | 0.087 µM | C[C@@H](/C=C/c1cnc(Oc2ccc(OCC3CC3)cc2Cl)s1)NC(=O)c1ccnc(CO)c1 [Compound I-237]
35 | 0.15 µM | C[C@@H](/C=C/c1cnc(Oc2ccc(OCC3CC3)cc2Cl)s1)NC(=O)Cc1ccncc1 [Compound I-122]

same assay, conditions: inhibition activity on human ACC2, Table 82; read-out: IC50

Row | IC50 | Compound
36 | 0.23 µM | CCNC(=O)c1cc(C(=O)N[C@@H](C)/C=C/c2cnn(Cc3ccc(OCC4CC4)c(Cl)c3Cl)c2)ccn1 [Compound I-320]
37 | 0.029 µM | CCNC(=O)c1cc(C(=O)N[C@@H](C)/C=C/c2cnn(Cc3c(Cl)cc(OCC4CC4)cc3Cl)c2)ccn1 [Compound I-321]
38 | 0.24 µM | CC(=O)N[C@@H](C)/C=C/c1ccc(Oc2ccc(C3=CCOCC3)cc2Cl)nc1 [Compound I-352]
39 | 0.21 µM | COc1ccc(-c2ccc(Oc3ccc(/C=C/[C@H](C)NC(C)=O)cn3)c(Cl)c2)cn1 [Compound I-348]
40 | 0.024 µM | CC(=O)N[C@@H](C)/C=C/c1ccc(Oc2ccc(C3(C)CC3)cc2Cl)nc1 [Compound I-369]
41 | 0.051 µM | CC(=O)N[C@@H](C)/C=C/c1ccc(Oc2ccc(-c3ccc(C)cc3)cc2Cl)nc1 [Compound I-344]
42 | 0.036 µM | CCOc1cc(F)c(Oc2ccc(/C=C/[C@H](C)NC(C)=O)cn2)c(Cl)c1 [Compound I-361]

same assay, conditions: inhibition activity on human ACC2, Table 84; read-out: IC50

Row | IC50 | Compound
43 | 0.78 µM | CCCc1ccc(Oc2ccc(/C=C/[C@H](C)NC(C)=O)cn2)c(OC)c1 [Compound I-438]
44 | 0.0065 µM | CC(=O)N[C@@H](C)/C=C/c1ccc(Oc2ccc3nc(C(C)(C)C)sc3c2)nc1 [Compound I-504]
45 | 0.69 µM | CCOC(=O)c1cnc(Oc2ccc(Oc3ccc(/C=C/[C@H](C)NC(C)=O)cn3)c(Cl)c2)s1 [Compound I-441]
46 | 0.52 µM | CCCc1ccc(Oc2ncc(/C=C/[C@H](C)NC(C)=O)cn2)c(Cl)c1 [Compound I-432]
47 | 0.0097 µM | CCc1nc2ccc(Oc3ccc(/C=C/[C@H](C)NC(C)=O)cn3)c(Cl)c2s1 [Compound I-474]
48 | 0.065 µM | CCOc1ccc(Oc2ncc(/C=C/[C@H](C)NC(C)=O)cc2C)c(Cl)c1 [Compound I-442]
49 | 0.085 µM | CCC(=O)c1ccc(Oc2ncc(/C=C/[C@H](C)NC(C)=O)s2)c(Cl)c1 [Compound I-431]
50 | 0.0058 µM | CC(=O)N[C@@H](C)/C=C/c1ccc(Oc2ccc3nc(C(F)(F)F)sc3c2Cl)nc1 [Compound I-491]
51 | 0.037 µM | CC(=O)N[C@@H](C)/C=C/c1ccc(Oc2ccc3c(c2)OCCO3)nc1 [Compound I-472]
52 | 0.042 µM | CC(=O)N[C@@H](C)/C=C/c1ccc(Oc2ccc(Oc3ccc(C#N)cc3)cc2Cl)nc1 [Compound I-452]
53 | 0.022 µM | CC(=O)N[C@@H](C)/C=C/c1cnc(Oc2ccc(OCC3CC3)cc2Cl)c(C)c1 [Compound I-443]
54 | 0.24 µM | C/C=C(\CC)c1ccc(Oc2ccc(/C=C/[C@H](C)NC(C)=O)cn2)c(Cl)c1 [Compound I-476]
55 | 0.027 µM | CC(=O)N[C@@H](C)/C=C/c1ccc(Oc2ccc(C3=CCC4(CC3)CC4)cc2Cl)cn1 [Compound I-513]
56 | 0.047 µM | CC(=O)N[C@@H](C)/C=C/c1ccc(Oc2cnc(N3CCC(F)(F)CC3)nc2)nc1 [Compound I-517]
57 | 0.02 µM | CCCc1ccc(Oc2ccc(/C=C/[C@H](C)NC(C)=O)cn2)c(Cl)c1Cl [Compound I-440]
58 | 0.052 µM | CC(=O)N[C@@H](C)/C=C/c1ccc(Oc2ccc3c(c2)OC(F)(F)O3)nc1 [Compound I-483]
59 | 0.52 µM | CCN1CCc2cc(Oc3ccc(/C=C/[C@H](C)NC(C)=O)cn3)ccc2C1=O [Compound I-480]

same assay, conditions: inhibition activity on human ACC2, untitled table (Table 81); read-out: IC50

Row | IC50 | Compound
60 | 1.4 µM | CC(=O)N[C@@H](C)/C=C/c1ccc(Oc2ccc(OCCO)cc2Cl)nc1 [Compound I-304]
61 | 0.05 µM | CC(=O)N[C@@H](C)/C=C/c1ccc(Oc2ccc(NC(=O)CCCCl)cc2Cl)nc1 [Compound I-256]
62 | 0.079 µM | CCOc1ccc(Oc2ccc(/C=C(\C)C(C)NC(C)=O)cn2)c(Cl)c1 (centres unmarked) [Compound I-271]
63 | 0.036 µM | CCN(CC)c1ccc(Oc2ccc(/C=C/[C@H](C)NC(C)=O)cn2)c(Cl)c1 [Compound I-288]
64 | 0.013 µM | CC(=O)NC(C)/C(C)=C/c1ccc(Oc2ccc(OCC3CC3)cc2Cl)nc1 (centres unmarked) [Compound I-282]
65 | 0.17 µM | CCOc1cc(Oc2ccc(/C=C/[C@H](C)NC(C)=O)cn2)ccc1F [Compound I-280]
